Entries after “also recorded” stand apart in the source; their conditions may differ. Read-outs that look alike come from different tables or passages of the source.
How the values were obtained:
[1] = test system: wild-type (AB) zebrafish (Danio rerio); test: Maximum tolerated concentration (MTC) determination in zebrafish larvae; assay type: in vivo; conditions: for MTC (maximum tolerated concentration): 5 dpf zebrafish larvae, after 24-hr exposure
Method: Determination of maximum tolerated concentration (adapted from Berghmans)[52] was completed by placing 5 days post fertilization (dpf) wild-type zebrafish larvae in a 24 well plate at 6 fish per well, and one compound concentration per well. […] Death was determined by the absence of heartbeat. Additional endpoints were used to assess toxicity at non-lethal concentrations such as startle capacity (poke stimulus), abnormalities in swimming behavior (loss of dorsoventral balance), and gross morphological deformities (bent body). […] The MTC determination was used to select three doses of each compound (low, medium, high dose) to be used in behavioral assays.

[2] = test system: wild-type (AB) zebrafish (Danio rerio); test: animal or person; assay type: in vivo; conditions: for Therap. Index: zebrafish, apparently MTC / MEC
Method: The movement of larval zebrafish was monitored with the Noldus behavior recording system (Noldus Information Technology, Leesburg VA) and quantified using EthoVision® XT 15 software (Noldus Information Technology, Leesburg VA). Five-dpf zebrafish larvae were exposed to a range of nonlethal concentrations of compounds in a 24-well plate with appropriate controls. The plate was immediately placed in the incubator for a 30-minute exposure period. After 30 minutes, the plate was transferred to the Noldus system and swimming behavior was recorded in 100% light for 30 minutes to measure spontaneous swimming behavior. The light was switched off for 10 minutes (dark period) and then switched on for 10 minutes (light period), which was then repeated for two additional cycles. In total, the larvae were exposed to three cycles of alternating 10-minute dark and light periods (100% darkness-to-100% light). Each drug challenge was conducted on three separate plates with n = 6 larvae/dose/plate.
Absolute turn angle (TA) and angular velocity provided measures of the extent of turning behavior, while the intra-individual variance of turn angle quantified how consistently (low variance) or inconsistently (high variance) fish turned. A lowered intra-individual variance of turning reflected repeatedly performing the same turning behavior, a stereotypy.[53]
All data for exposure and the behavioral end points were analyzed by one-way ANOVA (factor: drug concentration) followed by a Dunnett’s multiple comparisons test for post hoc significance between drug concentration and control group. Statistically significant differences are noted as follows; *, p < 0.05; **, p < 0.01; ***, p < 0.001.

[3] = target: T1, human M1 muscarinic receptors (Homo sapiens, UniProt P11229); test: [3H]-arachidonic acid release in CHO cells expressing M1 receptors, with and without ACh; assay type: cell-based; set-up: expressed in transfected cells; host or cells: CHO cells (stably transfected CHO-hM1, from Mark Brann's laboratory, NIH); conditions: for No ACh: agonist effect of the allosteric ligand by itself, fraction of the maximal response that could be elicited by ACh / 0.1 µM ACh: response with modulator present divided by response to ACh alone / 100 µM ACh: response with modulator present divided by response to ACh alone: modulator 10 µM, mean ± s.e.m.; for No ACh: agonist effect of the allosteric ligand by itself, fraction of the maximal response that could be elicited by ACh: at least 4 determinations
T1 sequence (P11229 1-460): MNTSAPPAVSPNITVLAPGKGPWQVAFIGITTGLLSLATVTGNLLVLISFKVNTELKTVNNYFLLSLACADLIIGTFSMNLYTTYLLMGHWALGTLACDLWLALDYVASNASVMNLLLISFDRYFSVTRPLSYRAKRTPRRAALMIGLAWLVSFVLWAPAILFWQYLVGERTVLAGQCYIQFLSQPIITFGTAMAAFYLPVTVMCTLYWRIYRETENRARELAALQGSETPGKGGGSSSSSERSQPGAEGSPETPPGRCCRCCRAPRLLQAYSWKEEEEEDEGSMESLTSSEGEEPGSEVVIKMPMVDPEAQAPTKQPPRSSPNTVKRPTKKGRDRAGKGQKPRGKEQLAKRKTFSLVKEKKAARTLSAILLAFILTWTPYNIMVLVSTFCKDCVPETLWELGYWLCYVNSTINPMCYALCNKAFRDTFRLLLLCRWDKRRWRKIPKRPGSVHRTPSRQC
Method: CHO cells expressing human M1 muscarinic receptors were cultured at 37°C in a 5% CO2 atmosphere in F12 medium supplemented with 5% fetal bovine serum, 100 units/mL penicillin, and 100µg/mL streptomycin. These cells were obtained from Mark Brann’s laboratory when they were at NIH and have been in use by us and others for many years.[49]
Measurement of [^3H]AA release was performed as described in Stahl and Ellis.[24] Stably transfected CHO-hM1 cells were seeded on 24-well plates (Greiner Bio-One GmbH, Frickenhausen, Germany) at a density of 5.0 × 10^4 cells/well in 0.5 ml of F-12 medium. Cells were incubated until they attached (approximately 3 h), followed by the addition of [^3H]AA to a final concentration of 0.05 µCi of [^3H]AA per well. The cells were then grown for 16 to 20 h before the assay was performed. [^3H]AA release was measured in Eagle’s basal medium with 20 mM HEPES and 2 mg/ml fatty acid-free bovine serum albumin (EM-BSA). Cells were rinsed twice with EM-BSA, followed by the addition of EM-BSA media containing experimental agents and incubated for 1 h at 37°C. The assay was terminated by aspiration of the media, and the amount of [^3H]AA released was determined by liquid scintillation counting (Beckman-Coulter LS6500). […]
Tabulated [^3H]AA release data are represented as a fraction of maximal release elicited by ACh or as the fraction of release elicited by the relevant concentration of ACh alone, as indicated. Dose-response curves were normalized to the maximal response of ACh without allosteric ligand. Where indicated, response curves were analyzed using the empirical four-parameter equation: […] where X is the concentration of the ligand used, Y is the amount of response, C50 is the concentration of the ligand that produces 50% of the maximal effect, Top and Bottom are the top and bottom plateaus of the curve, and n is related to the Hill slope for the curve. Where indicated, families of response curves were analyzed according to an allosteric operational model:[50],[51]

[4] = [3H]AA release, CHO-hM1, modulators at 10 µM (amiodarone 30 µM)

SMILES | MTC (maximum tolerated concentration) [1] | Therap. Index [2] | modulation of ACh response (in words) [3, 4] | other results
COc1ccc(CN2C(=O)C(=O)c3ccccc32)cc1F [Compound 8h, 1-(3-fluoro-4-methoxybenzyl)indoline-2,3-dione] | 30 µM | 10 | – | –
CCCCc1oc2ccccc2c1C(=O)c1cc(I)c(OCCNCC)c(I)c1.Cl [Compound 1, (2-butylbenzofuran-3-yl)(4-(2-(ethylamino)ethoxy)-3,5-diiodophenyl)methanone hydrochloride] | 3 µM | 1 | suppressed the maximal ACh response | –
CCCCc1oc2ccccc2c1C(=O)c1ccc(OCCN(CC)CC)cc1 [Compound 6c, (2-butylbenzofuran-3-yl)(4-(2-(diethylamino)ethoxy)phenyl)methanone] | 3 µM | 30 | decreased ACh activity | –
CCCCc1oc2ccccc2c1C(=O)c1cc(I)c(OCC[N+](CC)(CC)CC)c(I)c1 [Compound 2, N-ethyl amiodarone, reference compound] | 1 µM | – | NAM of mAChR potency and efficacy | –
COc1ccc(CN2C(=O)C(=O)c3ccccc32)cc1I [Compound 8b, 1-(3-iodo-4-methoxybenzyl)indoline-2,3-dione] | 10 µM | 10 | – | –
O=C1C(=O)N(Cc2cc(F)c(F)c(F)c2)c2ccccc21 [Compound 8i, 1-(3,4,5-trifluorobenzyl)indoline-2,3-dione] | 10 µM | 10 | – | –
COc1c(F)cc(CN2C(=O)C(=O)c3ccccc32)cc1F [Compound 8g, 1-(3,5-difluoro-4-methoxybenzyl)indoline-2,3-dione] | 30 µM | 30 | – | –
CCCCc1oc2ccccc2c1C(=O)c1cc(I)c(OC)c(I)c1 [Compound 6b, (2-butylbenzofuran-3-yl)(3,5-diiodo-4-methoxyphenyl)methanone] | 30 µM | – | increased ACh activity | –
COc1ccc(Cn2cc(C(=O)O)c(=O)c3ccccc32)cc1 [BQCA, reference compound] | – | – | – | effect on locomotor activity and turning behaviors (in words) ([2]; AB zebrafish, 30-minute spontaneous swimming period): decreased overall locomotor activity; modulation of ACh response (in words) [3]: enhanced potency without appreciable effect on maximal response; No ACh: agonist effect of the allosteric ligand by itself, fraction of the maximal response that could be elicited by ACh ([3]; CHO-hM1): 0.02 ± 0.00
CCCCc1oc2ccccc2c1C(=O)c1cc(I)c(OCCN(CC)C(C)=O)c(I)c1 [Compound 5a, N-(2-(4-(2-butylbenzofuran-3-carbonyl)-2,6-diiodophenoxy)ethyl)-N-ethylacetamide] | 10 µM | – | – | intrinsic agonist activity (in words) ([3]; [3H]AA release in the absence of ACh, 10 µM): significant intrinsic agonist activity; increase in mAChR activity compared to treatment with ACh alone ([3]; [3H]AA release, CHO-hM1, predominantly at higher doses of ACh (Table 2, not available)): 70%
CCN(CC)CCOc1c(Br)cc(CN2C(=O)C(=O)c3ccccc32)cc1Br.Cl [Compound 8l, 1-(3,5-dibromo-4-(2-(diethylamino)ethoxy)benzyl)indoline-2,3-dione hydrochloride] | 10 µM | 1 | only decreased ACh activity; also recorded: decreased ACh potency with little impact on ACh efficacy | –
COc1ccc(CN2C(=O)C(=O)c3ccccc32)cc1Cl [Compound 8f, 1-(3-chloro-4-methoxybenzyl)indoline-2,3-dione] | 10 µM | 3.3 | – | –
COc1ccc(CN2C(=O)C(=O)c3ccccc32)cc1Br [Compound 8d, 1-(3-bromo-4-methoxybenzyl)indoline-2,3-dione] | 100 µM | 100 | – | –
CCCCc1oc2ccccc2c1C(=O)c1ccc(O)cc1 [Compound 4, reference compound] | 0.3 µM | – | suppressed the maximal ACh response | –
CCCCc1oc2ccc(NS(C)(=O)=O)cc2c1C(=O)c1ccc(OCCCN(CCCC)CCCC)cc1 [Dronedarone, reference compound] | 10 µM | 1 | – | 0.1 µM ACh: response with modulator present divided by response to ACh alone ([3]; CHO-hM1): 0.25 ± 0.05; 100 µM ACh: response with modulator present divided by response to ACh alone ([3]; CHO-hM1): 0.75 ± 0.07; No ACh: agonist effect of the allosteric ligand by itself, fraction of the maximal response that could be elicited by ACh ([3]; CHO-hM1): 0.08 ± 0.01
CCCCc1oc2ccccc2c1C(=O)c1cc(I)c(O)c(I)c1 [Compound 3, reference compound] | 3 µM | – | suppressed the maximal ACh response | –
O=C1C(=O)N(Cc2ccc(O)cc2)c2ccccc21 [Compound 10, 1-(4-hydroxybenzyl)indoline-2,3-dione] | 10 µM | 3.3 | – | –
COc1cc(CN2C(=O)C(=O)c3ccccc32)cc(OC)c1OC [Compound 8k, 1-(3,4,5-trimethoxybenzyl)indoline-2,3-dione] | 30 µM | 30 | – | –
O=C1C(=O)N(Cc2ccc(Br)cc2)c2ccccc21 [VU0119498, reference compound] | – | – | – | 0.1 µM ACh: response with modulator present divided by response to ACh alone ([3]; CHO-hM1): 1.28 ± 0.12; 100 µM ACh: response with modulator present divided by response to ACh alone ([3]; CHO-hM1): 1.03 ± 0.05; No ACh: agonist effect of the allosteric ligand by itself, fraction of the maximal response that could be elicited by ACh ([3]; CHO-hM1): 0.06 ± 0.01
CCCCc1oc2ccccc2c1C(=O)c1ccc(OC)cc1 [Compound 6a, (2-butylbenzofuran-3-yl)(4-methoxyphenyl)methanone] | 3 µM | – | – | –
CCCCc1oc2ccccc2c1C(=O)c1cc(I)c(OCCN(CC)CC)c(I)c1 [Amiodarone, reference compound] | 10 µM | – | – | concentration that produced death ([1]; zebrafish larvae): 100 µM
COc1c(Cl)cc(CN2C(=O)C(=O)c3ccccc32)cc1Cl [Compound 8e, 1-(3,5-dichloro-4-methoxybenzyl)indoline-2,3-dione] | 100 µM | 100 | – | –

From publication PMC10896388, “Hybrid Allosteric Modulators of M1 Muscarinic Receptors Enhance Acetylcholine Efficacy and Decrease Locomotor Activity and Turning Behaviors in Zebrafish” (Research Square, 2024)
